Measured values as given in publication PMC6637479, “Identification of undecylenic acid as EAG channel inhibitor using surface plasmon resonance-based screen of KCNH channels” (BMC Pharmacology & Toxicology, 2019).

Target: T1, mEAG1 (Mus musculus, UniProt Q60603)
T1 construct: gene Kcnh1; PAS domain, residues 7–136 (N-terminal 6-His)
T1 sequence (Q60603 7-136): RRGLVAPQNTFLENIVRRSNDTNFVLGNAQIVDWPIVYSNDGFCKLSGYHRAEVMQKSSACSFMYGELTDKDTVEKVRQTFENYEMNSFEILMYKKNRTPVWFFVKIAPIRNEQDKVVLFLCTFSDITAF
Assay: SPR steady-state dose response (Biacore […]); also inhibits full-length mEAG1 currents in inside-out patches, IC50 […]
Assay type: binding

## C=CCCCCCCCCC(=O)O [undecylenic acid]
  Kd: ~11 µM
